# Results as given in patent US20230115176A1 (Ra Pharmaceuticals, Inc., priority 2019, published 2023).
# Columns and labels:
# [1] = Kinetic solubility in PBS pH 7.4, HPLC-UV (Example 21, Table 27); type: physicochemical; details: phosphate buffered saline, aqueous buffer, kinetic from dmso stock, 0.5 M PBS, shaken minimum 24 h at approximately 25° C., HPLC-UV 270 nm
# Protocol: Compounds were analyzed for kinetic solubility values using a standard kinetic solubility assay format. First, test compounds were dissolved in DMSO (Aldrich Chemical Co., Milwaukee, Wis., USA) at a concentration of 0.010 mol/L and used to prepare standard calibrators in DMSO solution. 500.0 μM, 250.0 μM, 125.0 μM, 62.5 μM, 31.2 μM, and 15.6 μM standards were prepared in a Greiner UV-Star clear V-bottom 96-well plate (Greiner-Bio One, Germany) for generating a standard curve. Using Alfa Aesar's Sodium phosphate, 0.2 M buffer solution, pH 7.4 (Alfa Aesar, Haverhill, Mass., USA), aqueous phosphate buffered saline (PBS) was prepared by diluting with Milli-Q water for a final concentration of 0.05 M. The pH of the solution was adjusted to 7.4±0.1 using 0.1 M hydrochloric acid (Fisher Scientific Waltham, Mass., USA) or 0.1 M aqueous sodium hydroxide (Fisher Scientific Waltham, Mass., USA).
# 10 μL of 0.010 mol/L DMSO test compound stock solutions were pipetted to separate 1.5 mL centrifuge tubes in triplicate. To these tubes, 190 μl of 0.05 M PBS was added. Each tube was gently vortexed for 5 sec. The tubes were shaken for a minimum of 24 h at approximately 25° C. After shaking, the solutions were transferred to 0.5 mL centrifuge filter tubes (MilliporeSigma, Burlington, Mass., USA) and centrifuged at 10,000 rpm for 5 min. After centrifugation, supernatants were collected and used for compound concentration analysis.
# Compound concentrations in each solution were determined using high pressure liquid chromatography (HPLC) with ultraviolet (UV) detection and comparison with external standards. For HPLC, a Waters Acquity CSH Phenyl-Hexyl column (2.1 mm×50 mm, 1.7 μm) was used together with a generic gradient method on a Waters H-class system equipped with a diode array detector: Solvent A=0.1% formic acid in water, Solvent B=0.1% formic acid in acetonitrile (MilliporeSigma, Burlington, Mass., USA), flow=0.65 mL/min, (t=0 min: 95% A-5% B, t=4.75 min: 0% A-100% B, t=4.85 min: 0% A-100% B, t=4.86 min: 95% A-5% B, t=5 min: 95% A-5% B). UV quantifications were performed at 270 nm. Solution concentrations were calculated using Microsoft Excel.
# Human C5 [2] = target: T1, Human C5 (Homo sapiens, UniProt P01031); assay: Red blood cell (RBC) hemolysis assay, luminescent (Example 13, Table 22); type: cell-based; details: sheep EA cells, […] C5-depleted human serum, 0.5 nM human C5, 1 hour 37° C., luminescence
# T1 construct: purchased Complement Technology
# Description: Compound CU0136 is a racemic mixture of Compound CU0186 and CU0187. Numbers in parenthesis following compound numbers indicate alternate enantiomers (as distinguished by retention time during chromatographical separation).
# purified human C5 = purified human C5 (Homo sapiens, UniProt P01031); assay: Red blood cell (RBC) hemolysis assay, optical, absorbance 412 nm (Example 10, Table 19); type: cell-based; details: antibody-sensitized sheep erythrocytes, […] human C5 depleted sera, 0.5 nM purified human C5, absorbance 412 nm; read-out: RBC Hemolysis IC50
# Human C5 [3] = target: T1, Human C5; assay: Red blood cell (RBC) hemolysis assay, luminescent (Example 28, Table 32); type: cell-based; details: sheep EA cells, 1.5% C5-depleted human serum, 0.5 nM human C5, 1 hour at 37° C., luminescence (Table 32)
# Sequence of purified human C5 (P01031 19-1676): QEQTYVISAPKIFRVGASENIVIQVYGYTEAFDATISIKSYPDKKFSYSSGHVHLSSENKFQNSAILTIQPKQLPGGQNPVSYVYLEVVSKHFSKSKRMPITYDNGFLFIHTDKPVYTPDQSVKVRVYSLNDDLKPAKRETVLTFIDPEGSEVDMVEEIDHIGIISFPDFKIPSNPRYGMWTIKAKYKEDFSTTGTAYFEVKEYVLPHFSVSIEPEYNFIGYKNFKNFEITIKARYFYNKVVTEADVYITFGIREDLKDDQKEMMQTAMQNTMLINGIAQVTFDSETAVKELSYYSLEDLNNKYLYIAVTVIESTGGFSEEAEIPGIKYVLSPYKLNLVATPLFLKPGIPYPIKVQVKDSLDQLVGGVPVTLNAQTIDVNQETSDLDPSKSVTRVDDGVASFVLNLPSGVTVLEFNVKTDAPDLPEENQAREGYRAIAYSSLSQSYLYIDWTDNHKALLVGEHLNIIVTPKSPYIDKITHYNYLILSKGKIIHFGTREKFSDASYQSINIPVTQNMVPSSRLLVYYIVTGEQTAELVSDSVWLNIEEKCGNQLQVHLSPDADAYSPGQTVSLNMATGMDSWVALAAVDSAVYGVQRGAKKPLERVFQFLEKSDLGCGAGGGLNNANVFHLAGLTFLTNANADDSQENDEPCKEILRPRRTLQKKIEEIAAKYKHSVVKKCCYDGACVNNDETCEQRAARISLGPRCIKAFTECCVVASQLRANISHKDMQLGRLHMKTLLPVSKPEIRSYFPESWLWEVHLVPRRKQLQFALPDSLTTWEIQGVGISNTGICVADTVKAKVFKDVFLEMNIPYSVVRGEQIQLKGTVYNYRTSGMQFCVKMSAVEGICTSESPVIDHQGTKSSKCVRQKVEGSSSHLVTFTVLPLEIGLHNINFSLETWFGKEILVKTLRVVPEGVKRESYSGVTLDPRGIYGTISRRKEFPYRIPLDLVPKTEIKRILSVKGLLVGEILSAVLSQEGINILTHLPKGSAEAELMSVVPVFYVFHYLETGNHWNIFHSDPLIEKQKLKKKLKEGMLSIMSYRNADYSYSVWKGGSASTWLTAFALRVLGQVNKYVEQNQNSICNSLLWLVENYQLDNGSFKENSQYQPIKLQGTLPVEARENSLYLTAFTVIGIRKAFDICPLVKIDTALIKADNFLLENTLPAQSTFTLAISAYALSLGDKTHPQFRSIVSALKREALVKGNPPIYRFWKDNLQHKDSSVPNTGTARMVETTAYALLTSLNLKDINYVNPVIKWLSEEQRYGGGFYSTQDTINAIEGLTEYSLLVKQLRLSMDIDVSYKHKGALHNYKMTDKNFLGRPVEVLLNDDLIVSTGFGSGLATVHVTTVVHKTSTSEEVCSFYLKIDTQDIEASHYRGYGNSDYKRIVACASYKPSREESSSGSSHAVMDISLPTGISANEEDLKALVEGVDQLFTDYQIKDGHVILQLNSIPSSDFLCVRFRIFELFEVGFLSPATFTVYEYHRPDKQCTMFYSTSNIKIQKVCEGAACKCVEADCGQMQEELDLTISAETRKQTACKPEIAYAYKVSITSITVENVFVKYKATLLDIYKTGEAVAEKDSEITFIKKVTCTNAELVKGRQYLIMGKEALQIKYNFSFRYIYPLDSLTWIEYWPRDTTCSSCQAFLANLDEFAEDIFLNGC
# T1 sequence (P01031 19-1676): as above
SMILES,IC50 (purified human C5) [nM],other results
CCCCCOc1cc(N2CCCN(Cc3ccnc4c3ccn4CC(=O)N3CCO[C@@H](COC)C3)C2=O)ccc1OC [CU0260],,solubility kinetic [1]: 436 µM; IC50 (Human C5 [2]): 25 nM
COc1ccc(NC(=O)NCc2cccc3ccsc23)cc1OCCCC(C)C [Compound C5INH-0294],343,
CNC(=O)c1cccc(CNC(=O)Nc2ccc(OC)c(OCCCC(C)C)c2)c1 [Compound C5INH-0319],793,
COc1ccc(N)cc1CNC(=O)Nc1ccc(OC)c(OCCCC(C)C)c1 [Compound C5INH-0321],61,
COc1ccc(NC(=O)NCc2ccc(CN3CCN(C)CC3)cc2)cc1OCCCC(C)C [Compound C5INH-0324],551,
COc1ccc(NC(=O)NCc2ccnc3c2ccn3CCN2CCOCC2)cc1OCCCC(C)C [Compound C5INH-0370],209,
COc1ccc(NC(=O)N2CCCC2c2ccccc2OC)cc1OCCCC(C)C (stereo not shown) [Compound C5INH-0371],67.6,
COc1ccc(NC(=O)NCc2ccnc3c2ccn3CCC(=O)O)cc1OCCCC(C)C [Compound C5INH-0399],619,
COc1ccc(NC(=O)NCc2ccnc3c2ccn3CCN2CCCS2(=O)=O)cc1OCCCC(C)C [Compound C5INH-0411],618,
COc1ccc(NC(=O)NCc2cccc3cn[nH]c23)cc1OCCCC(C)C [Compound C5INH-0448],4290,
COc1ccc(OCCCC(C)C)cc1NC(=O)NC(CO)c1ccccc1 (stereo not shown) [Compound C5INH-0487],824,
COc1ccc(NC(=O)NCc2ccnc3c2ccn3CC(=O)N2CCCCC2)cc1OCCCC(C)C [Compound C5INH-0507],185,
COc1ccc(NC(=O)NCc2ccnc3c2ccn3CC(=O)N2CCOCC2)cc1OCCCC(C)C [Compound C5INH-0508],72,
COc1cc(CNC(=O)C(C)(C)C)c(NC(=O)NCc2ccnc3[nH]ccc23)cc1OCCCC(C)C [Compound C5INH-0509],286,
COc1cc(CNC(=O)c2ccccc2)c(NC(=O)NCc2ccnc3[nH]ccc23)cc1OCCCC(C)C [Compound C5INH-0510],119,
COc1ccc(NC(=O)NC(C(=O)NO)c2cccc(OC)c2O)cc1OCCCC(C)C (stereo not shown) [Compound C5INH-0512],41.5,
COc1ccc(NC(=O)Nc2ccc3cc[nH]c3c2)cc1OCCCC(C)C [Compound C5INH-0513],3320,
COc1ccc(NC(=O)NCc2c(F)cnc3c2ccn3CC(=O)N(C)C)cc1OCCCC(C)C [Compound C5INH-0515],1600,
COc1ccc(NC(=O)NCc2ccnc(NCCCN(C)C)c2OC)cc1OCCCC(C)C [Compound C5INH-0532],218,
COc1ccc(NC(=O)CN2CCOCC2)cc1CNC(=O)Nc1ccc(OC)c(OCCCC(C)C)c1 [Compound C5INH-0533],671,
COc1ccc(NC(=O)NCc2ccnc3c2ccn3Cc2ccncc2)cc1OCCCC(C)C [Compound C5INH-0540],432,
COc1ccc(NC(=O)NCc2cccc3c2OCCO3)cc1OCCCC(C)C [Compound C5INH-0543],373,
COc1cc(CC(=O)N2CCNC(=O)C2)ccc1CN1C(=O)N(c2ccc(OC)c(OCCCC3CC3)c2)CC[C@@H]1C [SC0118],,IC50 (Human C5 [3]): 1.4 nM
COc1cc(CC(=O)N(C)[C@@H]2CCNC2)ccc1CN1C(=O)N(c2ccc(OC)c(OCCCC3CC3)c2)CC[C@@H]1C [SC0121],,IC50 (Human C5 [3]): 1.5 nM
CCCCCOc1cc(N2CC[C@H](C)N(Cc3ccnc4c3c(Cl)cn4CC(=O)N(C)OC)C2=O)ccc1OC [SC0124],,IC50 (Human C5 [3]): 1.6 nM
CCN1CC[C@@H](NC(=O)Cc2ccc(CN3C(=O)N(c4ccc(OC)c(OCCCC5CC5)c4)CC[C@@H]3C)c(OC)c2)C1 [SC0126],,IC50 (Human C5 [3]): 1.6 nM
CCCCCOc1cc(N2CC[C@H](C)N(Cc3ccnc4c3c(Cl)cn4CC(=O)N3CC[C@H](N(C)C)C3)C2=O)ccc1OC [SC0129],,IC50 (Human C5 [3]): 1.7 nM
